Seven compounds from patent US5023266A, “Method of treatment of psychotic disorders” (Synthelabo, priority 1989, dated 1991) can be followed below.

Molecules are shown by their SMILES.

For the experiment, the target named is σ-receptor. As to the kind of experiment: Inhibition of [3H]-(+)-3-PPP binding to the σ-receptor in rat cerebral cortex membranes. Particulars: 2nM [3H]-(+)-3-PPP, 90 min at 25° C., non-specific binding defined with 1μM haloperidol, read-out: IC50, concentration which inhibits 50 percent of the [3H]-(+)-3-PPP binding. Here is the method: In particular their inhibitory activity on the binding of [^3 H](+)3(3-hydroxyphenyl)-N-(1-propyl)-piperidine, or [^3 H]-(+)-3-PPP, to the σ-receptor in the cerebral cortex of rats has been studied, essentially as described in J. Pharmacol. Exp. Ther., 238, 739-748, (1986). Male Sprague-Dawley rats (150-200 g) were sacrificed, and the cerebral cortex was homogenized in 25 volumes of ice-cold Tris-HCl buffer (pH 7.4 at 25° C.) with the use of an Ultra-Turrax™ polytron. The homogenate was washed twice by centrifugation (10 min at 45,000g) and intermittent resuspension of the resulting pellet in fresh buffer. The final pellet was resuspended in 20 volumes of 50mM Tris-HCl buffer (pH 8.0 at 22° C.). A 75 μl aliquot of this membrane preparation was then incubated in a final volume of 250 μl with 2nM [^3 H]-(+)-3-PPP (specific activity 90 Ci/mmol; New England Nuclear) for 90 min at 25° C., in the absence or in the presence of competing drugs. After incubation, the membranes were recovered by filtration over 0.05% polyethyleneimine-pretreated Whatman™ GF/B filters using a Skatron™ Cell Harvester, and washed with ±2.5 ml of ice-cold 50mM Tris-HCl buffer (pH 7.7 at 0° C.). Non-specific binding was defined with 1μM haloperidol.
Data were analyzed by conventional graphical techniques and least-squares regression analysis where appropriate.
The following Table indicates the IC50 of the compounds, i.e. the concentration (μM) which inhibits 50 percent of the [^3 H]-(+)-3-PPP.
On to `C[C@H]([C@H](O)c1ccc(O)cc1)N1CCC(Cc2ccccc2)CC1` (relative stereo) [Compound 2], for which the IC50 came out at 10 nM.

With `C[C@@H]([C@H](O)c1ccc(O)cc1)N1CCC(Cc2ccccc2)CC1` (single isomer, unassigned) [Compound 3], the IC50 turned out to be 15 nM.

With `C[C@@H]([C@H](O)c1ccc(O)cc1)N1CCC(Cc2ccccc2)CC1` (relative stereo) [Compound 1], the IC50 is 8 nM.

On to `OC(CN1CCC(Cc2ccc(F)cc2)CC1)c1ccc(Cl)cc1` (single isomer, unassigned) [Compound 6], for which the IC50 is 9.2 nM.

As for `OC(CN1CCC(Cc2ccc(F)cc2)CC1)c1ccc(Cl)cc1` (racemic) [Compound 5], the IC50 is 3 nM.

Consider `C[C@@H]([C@H](O)c1ccc(O)cc1)N1CCC(Cc2ccccc2)CC1` (single isomer, unassigned) [Compound 4], for which the IC50 turned out to be 7 nM.

As to `OC(CN1CCC(Cc2ccc(F)cc2)CC1)c1ccc(Cl)cc1` (single isomer, unassigned) [Compound 7], the IC50 was 9.8 nM.
